Each block holds one compound with its values, some of them ahead of it.
Assays:
[1] = Pharmacokinetics of ginsenosides in plasma after a single oral dose of RG or BRG capsules in healthy Korean men (LC-MS/MS); assay type: in vivo, human; settings: for half-life: T 1/2; for Tmax: T max
Description: This study was designed as a randomized, open-label, single-dose, crossover study with washout every 1 week to evaluate the pharmacokinetics and safety of ginsenosides. Subjects were randomly assigned to either the RG or BRG group during the first period of the study (Figure 2). After 1 week of the washout period, other products that were not received in the first period were provided. All enrolled subjects were hospitalized at Bestian Clinical Trial Center on the day before taking RG or BRG. Subjects were provided regular meals, and additional food intake was restricted after the meal. The next day, the subjects who had maintained the fasting state for 10 h took the capsules corresponding to 5 g of RG and BRG orally. Water was restricted for 1 h before and after intake, and food intake was restricted for 4 h after administration. After 4 h, all subjects received a standardized meal. In addition, lying down or sleeping was prohibited for 8 h after oral administration. Blood samples (5 mL) were collected before dosing and at each time point (0, 0.5, 1, 2, 4, 6, 8, 10, 12, and 24 h) after dosing. All blood samples were collected in heparin-treated tubes. The blood samples were promptly centrifuged at 3,000 rpm for 10 min at 4°C, and the plasma samples obtained were stored in a deep freezer at −70 ± 10°C until assay.
All analyses were performed using an Agilent 1200 series HPLC system (Agilent) with a Luna Phenyl-Hexyl column (2.0 × 150 mm, 5 μm; Phenomenex, CA, USA). The mobile phase comprised water (solvent A) and acetonitrile (solvent B) containing 0.1% formic acid. The flow rate of the mobile phase was 0.25–0.35 mL/min. The initial condition of 70% solvent A was set to 5% solvent A over 15 min. The content of ginsenosides in human plasma was measured using an API 5500 mass spectrometer (AB Sciex, Foster City, CA, USA) capable of multiple reaction monitoring (MRM). The parent-daughter ion pairs monitored were 845.5 ⟶ 799.6 for Rg1, 1153.6 ⟶ 1107.5 for Rb1, 829.4 ⟶ 783.5 for Rg3, and F2, 811.4 ⟶ 161.0 for Rg5 and Rk1, 667.4 ⟶ 161.0 for CK, and 825.4 ⟶ 779.3 for digoxin as an IS in the negative ion mode. Nitrogen gas was used in the nebulizer and the collision cell. The ion spray voltage was set to 5500 V.
Standard plasma samples were prepared such that each ginsenoside was in the concentration range of 0.5–100 ng/mL; 10 μL of a standard mixture of six kinds of ginsenosides (Rg1, Rb1, Rg5 + Rk1, F2, and CK) was added to 90 μL of blank human plasma. Rg3 was prepared in the concentration range of 0.2–40 ng/mL. Standard plasma samples (100 μL) were added to 200 μL of methanol containing 50 ng/mL digoxin, an IS. These were mixed for 1 min and then centrifuged at 12,000 rpm for 5 min at 4°C. Then, 100 μL of the supernatant was transferred to an LC vial, and 10 μL was injected into the LC-MS/MS system. Plasma samples stored at −70°C were thawed at room temperature. Samples for LC-MS/MS analysis were pretreated in the same manner as standard plasma samples.
Plasma concentrations of seven ginsenosides were calculated from calibration curves by calculating the ratio of the peak area of the test substance to the peak area of the IS. The following pharmacokinetic parameters were measured using Phoenix WinNonlin 6.3 (Pharsight Co, CA, USA): time to reach maximum observed plasma drug concentration (Tmax), maximum observed plasma drug concentration (Cmax), area under the plasma drug concentration-time curve from 0 h to the final measured time (AUC(0–t)), area under the plasma drug concentration–time curve from 0 h to infinity (AUC(0–∞)), and terminal elimination half-life (t1/2).

[2] = Stability of the ginsenosides in human plasma (QC samples, LC-MS/MS method validation); assay type: in vitro ADME; settings: human; for Short-term stability, concentration found: 19 h; for Autosampler stability, concentration found: 34 h; for Long-term stability, concentration found: 50 days
Procedure: The LC-MS/MS method was validated to determine selectivity, lower limits of quantification (LLOQ), accuracy, precision, recovery, matrix effect, and stability, according to the guideline for validating the bioanalytical method. The selectivity of the method was evaluated by comparison of blank plasma from six different men to the corresponding spiked plasma sample at the level of LLOQ to investigate the potential interferences at the LC chromatographic conditions for ginsenoside analytes and IS. The signal-to-noise ratio (S/N) of the LLOQ sample was at least five times the response compared to the blank samples. Each calibration curve was constructed by plotting the peak area ratio (y) of the analyte to IS against the spiked concentrations (x) of each analyte. Linearity was assessed by weighted (1/x^2) least squares regression analysis. The LLOQ was defined as the lowest concentration on the calibration curve with an S/N ratio of 10, where the precision and accuracy bias were within ±20% by five replicate analyses. The intra- and interday precision and accuracy assessments were performed at four concentrations with five replicates on the same day and three consecutive days, respectively. The acceptance criterion recommended by the guideline of precision and the accuracy was ±15% of the nominal concentration. The recovery of the seven ginsenosides was determined at three QC levels with three replicates by comparing the peak areas of plasma extracts spiked with analytes before extraction with those of the postextraction spiked samples at the same concentration. The matrix effects were investigated by comparing the peak areas of the analytes dissolved in the pretreated blank plasma with the corresponding concentrations prepared in the reconstitution solution with three replicates. The stability of the analytes in human plasma was assessed by analyzing five replicates of plasma samples at low, medium, and high QC levels under four different conditions. Short-term stability was evaluated after the exposure of QC samples to room temperature for 19 h before processing and analysis. The freeze and thaw stability was tested after three repeated cycles of thawing at room temperature and freezing at approximately −70°C. The long-term stability was assessed after storage at approximately −70°C for 50 days. The post-preparative stability was examined after the exposure of processed samples at ambient temperature (stored in an HPLC autosampler) for 34 h.

- detection in the plasma samples ([1]; after oral RG or BRG): not detected
Compound: CC(C)=CCC[C@](C)(O[C@@H]1O[C@H](CO)[C@@H](O)[C@H](O)[C@H]1O)[C@H]1CC[C@]2(C)[C@@H]1[C@H](O)C[C@@H]1[C@@]3(C)CC[C@H](O)C(C)(C)[C@@H]3[C@@H](O[C@@H]3O[C@H](CO)[C@@H](O)[C@H](O)[C@H]3O)C[C@]12C [Rg1, ginsenoside Rg1]

Compound: CC(C)=CCC[C@](C)(O[C@@H]1O[C@H](CO)[C@@H](O)[C@H](O)[C@H]1O)[C@H]1CC[C@]2(C)[C@@H]1[C@H](O)C[C@@H]1[C@@]3(C)CC[C@H](O[C@@H]4O[C@H](CO)[C@@H](O)[C@H](O)[C@H]4O)C(C)(C)[C@@H]3CC[C@]12C [Ginsenoside F2, ginsenoside F2]
- Freeze-thaw stability, concentration found ([2]; 1.5 ng/mL): 98.29 ± 4.06%
- Freeze-thaw stability, concentration found ([2]; 80 ng/mL): 95.95 ± 1.10%
- Short-term stability, concentration found ([2]; 1.5 ng/mL): 99.21 ± 7.70%
- Short-term stability, concentration found ([2]; 80 ng/mL): 96.53 ± 4.04%
- Autosampler stability, concentration found ([2]; 1.5 ng/mL): 99.02 ± 8.01%
- Autosampler stability, concentration found ([2]; 80 ng/mL): 96.29 ± 0.99%
- Long-term stability, concentration found ([2]; 1.5 ng/mL): 101.83 ± 3.76%
- Long-term stability, concentration found ([2]; 80 ng/mL): 99.02 ± 2.04%
- detection in plasma at the initial time point (0 h) of the second treatment period ([1]; in vivo): did not detect
- AUC(0-t) ([1]; male, human, in vivo, po, AUC(0–t)): 74.1 ± 33 ng·h/mL
- AUC(0-inf) ([1]; male, human, in vivo, po, AUC(0–∞)): 90.7 ± 43 ng·h/mL
- Cmax ([1]; male, human, in vivo, po, C max): 5.83 ± 2.35 ng/mL
- half-life ([1]; male, human, in vivo, po): 9.77 ± 7.71 h
- Tmax ([1]; male, human, in vivo, po): 6.62 ± 1.71 h

- Freeze-thaw stability, concentration found ([2]; 0.6 ng/mL): 97.73 ± 3.53%
- Freeze-thaw stability, concentration found ([2]; 32 ng/mL): 95.33 ± 2.75%
- Short-term stability, concentration found ([2]; 0.6 ng/mL): 102.32 ± 2.68%
- Short-term stability, concentration found ([2]; 32 ng/mL): 96.32 ± 1.48%
- Autosampler stability, concentration found ([2]; 0.6 ng/mL): 102.95 ± 5.52%
- Autosampler stability, concentration found ([2]; 32 ng/mL): 97.25 ± 1.45%
- Long-term stability, concentration found ([2]; 0.6 ng/mL): 104.15 ± 8.68%
- Long-term stability, concentration found ([2]; 32 ng/mL): 99.84 ± 3.12%
- detection in plasma at the initial time point (0 h) of the second treatment period ([1]; in vivo): did not detect
- T 1/2 ([1]; male, human, in vivo, po): 5.70 ± 0.73^∗ h
- T max ([1]; male, human, in vivo, po): 4.23 ± 1.54 h
- half-life ([1]; male, human, in vivo, po): 5.58 ± 3.63 h
- Tmax ([1]; male, human, in vivo, po): 3.85 ± 1.28 h
Compound: CC(C)=CCC[C@](C)(O)[C@H]1CC[C@]2(C)[C@@H]1[C@H](O)C[C@@H]1[C@@]3(C)CC[C@H](O[C@@H]4O[C@H](CO)[C@@H](O)[C@H](O)[C@H]4O[C@@H]4O[C@H](CO)[C@@H](O)[C@H](O)[C@H]4O)C(C)(C)[C@@H]3CC[C@]12C [Rg3, ginsenoside Rg3]
